{"source": "patent US7462630B2", "about": "“Diarylalkene derivatives and novel diarylalkane derivatives” (Ajinomoto Co., Inc., priority 2001, dated 2008)", "key": {"L-type calcium channel": {"target": "T1, L-type calcium channel (Rattus norvegicus, UniProt P22002)", "T1 construct": "relaxation response against the KCl-induced contraction of isolated rat thoracic aorta was employed; from tissue; host or cells: endothelium-denuded thoracic aorta rings of Wistar rat", "T1 sequence (P22002 whole entry)": "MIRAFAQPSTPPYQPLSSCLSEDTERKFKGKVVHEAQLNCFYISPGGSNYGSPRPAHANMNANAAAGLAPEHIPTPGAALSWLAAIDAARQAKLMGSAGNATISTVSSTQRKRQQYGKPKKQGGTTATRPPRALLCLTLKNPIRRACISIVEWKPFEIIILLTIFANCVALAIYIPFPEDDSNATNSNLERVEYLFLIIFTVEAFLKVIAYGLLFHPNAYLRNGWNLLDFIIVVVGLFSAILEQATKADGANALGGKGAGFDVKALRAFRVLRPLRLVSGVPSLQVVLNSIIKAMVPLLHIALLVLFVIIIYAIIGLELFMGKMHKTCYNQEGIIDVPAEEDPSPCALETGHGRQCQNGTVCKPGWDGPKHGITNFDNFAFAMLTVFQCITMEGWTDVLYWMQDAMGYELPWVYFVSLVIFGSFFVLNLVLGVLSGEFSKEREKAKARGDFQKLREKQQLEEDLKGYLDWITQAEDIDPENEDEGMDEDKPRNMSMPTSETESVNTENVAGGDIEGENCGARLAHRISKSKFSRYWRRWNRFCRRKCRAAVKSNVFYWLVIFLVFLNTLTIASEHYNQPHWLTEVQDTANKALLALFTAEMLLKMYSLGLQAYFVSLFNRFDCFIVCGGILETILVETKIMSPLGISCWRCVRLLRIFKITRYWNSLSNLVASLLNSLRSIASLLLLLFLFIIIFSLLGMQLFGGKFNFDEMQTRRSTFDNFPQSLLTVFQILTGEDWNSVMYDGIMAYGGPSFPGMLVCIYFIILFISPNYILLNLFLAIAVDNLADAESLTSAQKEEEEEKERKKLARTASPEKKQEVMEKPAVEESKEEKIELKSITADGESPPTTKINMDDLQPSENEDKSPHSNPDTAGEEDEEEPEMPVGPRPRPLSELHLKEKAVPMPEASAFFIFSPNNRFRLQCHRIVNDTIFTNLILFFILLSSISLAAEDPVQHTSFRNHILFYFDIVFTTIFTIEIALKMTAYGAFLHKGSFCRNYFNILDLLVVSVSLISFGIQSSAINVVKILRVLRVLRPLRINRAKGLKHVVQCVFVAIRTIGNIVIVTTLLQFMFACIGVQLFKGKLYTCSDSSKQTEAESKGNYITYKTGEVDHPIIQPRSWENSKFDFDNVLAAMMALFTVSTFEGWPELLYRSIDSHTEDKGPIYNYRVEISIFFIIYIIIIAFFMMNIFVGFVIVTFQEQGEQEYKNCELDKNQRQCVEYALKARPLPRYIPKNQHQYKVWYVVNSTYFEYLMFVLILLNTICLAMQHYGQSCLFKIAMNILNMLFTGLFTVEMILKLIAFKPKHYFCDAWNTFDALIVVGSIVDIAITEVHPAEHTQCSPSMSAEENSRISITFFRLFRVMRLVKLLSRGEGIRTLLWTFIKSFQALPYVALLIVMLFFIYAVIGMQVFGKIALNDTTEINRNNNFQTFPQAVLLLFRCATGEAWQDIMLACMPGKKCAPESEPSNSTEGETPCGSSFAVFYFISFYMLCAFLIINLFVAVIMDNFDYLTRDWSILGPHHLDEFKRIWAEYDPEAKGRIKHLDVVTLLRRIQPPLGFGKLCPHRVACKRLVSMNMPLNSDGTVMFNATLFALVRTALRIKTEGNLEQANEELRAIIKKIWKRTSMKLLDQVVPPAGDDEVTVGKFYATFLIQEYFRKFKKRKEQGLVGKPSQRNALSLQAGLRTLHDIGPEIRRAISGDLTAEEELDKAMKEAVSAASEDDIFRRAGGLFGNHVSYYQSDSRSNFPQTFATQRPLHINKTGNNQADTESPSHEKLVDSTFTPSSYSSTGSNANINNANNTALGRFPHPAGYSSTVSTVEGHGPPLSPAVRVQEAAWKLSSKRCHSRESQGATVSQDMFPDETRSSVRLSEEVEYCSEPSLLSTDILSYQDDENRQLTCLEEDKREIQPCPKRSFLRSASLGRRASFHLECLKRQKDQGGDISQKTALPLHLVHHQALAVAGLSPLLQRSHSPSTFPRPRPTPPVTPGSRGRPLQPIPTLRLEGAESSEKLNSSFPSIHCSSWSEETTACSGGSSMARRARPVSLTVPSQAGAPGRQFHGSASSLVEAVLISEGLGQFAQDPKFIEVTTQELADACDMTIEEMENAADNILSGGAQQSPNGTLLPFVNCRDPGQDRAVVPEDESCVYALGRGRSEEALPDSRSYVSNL", "T1 sequence (P54287 whole entry partner)": "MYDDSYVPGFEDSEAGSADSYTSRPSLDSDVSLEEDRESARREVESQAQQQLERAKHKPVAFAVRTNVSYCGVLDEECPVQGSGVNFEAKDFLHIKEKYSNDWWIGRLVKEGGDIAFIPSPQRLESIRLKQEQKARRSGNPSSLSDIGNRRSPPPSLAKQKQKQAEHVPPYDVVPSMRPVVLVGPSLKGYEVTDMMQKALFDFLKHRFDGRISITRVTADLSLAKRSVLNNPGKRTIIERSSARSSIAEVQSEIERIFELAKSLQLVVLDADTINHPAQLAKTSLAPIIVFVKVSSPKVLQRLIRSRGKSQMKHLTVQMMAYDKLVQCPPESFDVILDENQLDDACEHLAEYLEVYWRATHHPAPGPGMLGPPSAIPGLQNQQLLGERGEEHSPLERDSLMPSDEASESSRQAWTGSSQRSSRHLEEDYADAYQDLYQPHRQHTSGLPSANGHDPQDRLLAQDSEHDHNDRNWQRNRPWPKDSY", "T1 sequence (P54290 25-944 partner limits assumed)": "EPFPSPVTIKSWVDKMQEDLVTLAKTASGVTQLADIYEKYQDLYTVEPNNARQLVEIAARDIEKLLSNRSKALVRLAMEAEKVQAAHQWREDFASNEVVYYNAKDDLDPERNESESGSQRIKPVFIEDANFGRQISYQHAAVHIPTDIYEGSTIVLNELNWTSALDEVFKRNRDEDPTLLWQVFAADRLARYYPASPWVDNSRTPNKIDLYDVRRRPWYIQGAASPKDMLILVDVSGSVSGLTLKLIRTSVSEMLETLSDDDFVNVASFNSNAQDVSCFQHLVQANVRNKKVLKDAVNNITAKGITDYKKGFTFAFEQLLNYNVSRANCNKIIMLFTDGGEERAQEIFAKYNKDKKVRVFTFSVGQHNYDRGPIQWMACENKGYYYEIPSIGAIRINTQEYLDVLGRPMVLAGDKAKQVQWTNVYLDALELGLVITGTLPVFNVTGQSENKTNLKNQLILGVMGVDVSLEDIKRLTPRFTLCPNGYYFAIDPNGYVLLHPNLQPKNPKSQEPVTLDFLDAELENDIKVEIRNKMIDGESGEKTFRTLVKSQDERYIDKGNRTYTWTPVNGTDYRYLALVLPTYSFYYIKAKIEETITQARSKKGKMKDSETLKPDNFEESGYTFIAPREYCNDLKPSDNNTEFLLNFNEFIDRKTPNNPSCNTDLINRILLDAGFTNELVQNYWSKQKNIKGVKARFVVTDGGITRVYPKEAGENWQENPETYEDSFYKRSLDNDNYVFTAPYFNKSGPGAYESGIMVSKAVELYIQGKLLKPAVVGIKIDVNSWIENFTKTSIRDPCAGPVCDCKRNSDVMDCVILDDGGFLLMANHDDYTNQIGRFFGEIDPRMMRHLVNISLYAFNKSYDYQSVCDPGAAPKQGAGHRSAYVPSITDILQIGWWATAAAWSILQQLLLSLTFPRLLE", "T1 sequence (P54290 945-1091 partner limits assumed)": "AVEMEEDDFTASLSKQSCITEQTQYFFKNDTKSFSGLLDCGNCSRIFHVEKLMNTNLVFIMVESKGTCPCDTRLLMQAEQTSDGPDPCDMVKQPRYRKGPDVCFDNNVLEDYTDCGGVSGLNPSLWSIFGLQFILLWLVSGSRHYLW", "experiment": "Antagonistic activity on L-type calcium channel (relaxation response against KCl-induced contraction of isolated rat thoracic aorta)", "conditions": "read-out: Antagonistic action on L-type calcium channels pIC50 (converted)", "method": "The antagonistic activity of the new diarylalkene derivatives and diarylalkane derivatives of the present invention to inhibit L-type calcium channel was determined by the following method in which the relaxation response against the KCl-induced contraction of isolated rat thoracic aorta was employed.\nThe slips of thoracic aorta isolated from a Wistar rat were used. The aorta was cut to obtain ring-shaped samples having a width of about 3 mm. The endothelial cells of the samples were mechanically removed. The samples were suspended in a strain gage in Tyrode's solution (158.3 mM of NaCl, 4.0 mM of KCl, 1.05 mM of MgCl2, 0.42 mM of NaH2PO4, 10 mM of NaHCO3, 2 mM of CaCl2 and 5 mM of glucose) in which a gaseous mixture of O2 (95%) and CO2 (5%) was introduced. A static tension of 2 g was applied thereto. The tension of the blood vessel was amplified with a transducer and a tension amplifier (EF-601G; Nihon Koden Corporation) and recorded with a multi-pen recorder (Rikadenki Kogyo Co., Ltd.). The experiments were conducted at 37° C.\nAfter the tension had been stabilized, the nutrient solution in the sample tank was replaced with High K^+ Tyrode's solution (112.3 mM of NaCl, 50 mM of KCl, 1.05 mM of MgCl2, 0.42 mM of NaH2PO4, 10 mM of NaHCO3, 2 mM of CaCl2 and 5 mM of glucose) to conduct the contraction reaction. Thirty minutes after, the solution in the sample tank was replaced with the normal Tyrode's solution. The solution in the sample tank was again replaced with the High K^+ Tyrode's solution and the contraction reaction was observed. After attaining the maximum contraction reaction, the test compound was cumulatively added at intervals of 90 minutes to attain concentrations of 10^−9, 10^−8, 10^−7 and 10^−6 M. The inhibitory rate of the test compound against the maximum contraction response was employed as the index of the antagonistic activity on L-type calcium channels.\nThe value of pIC50 indicates the antagonistic activity of the test compound, i. e. the negative logarithm of the concentration of the test compound necessitated for the 50% inhibition."}, "[1]": {"tested_on": "Sprague-Dawley (SD) rats, formalin-induced flinching", "experiment": "Analgesic effects in the formalin test", "assay_type": "in vivo, rat", "method": "Four test groups each composed of 7 male Sprague-Dawley: SD rats (9 weeks old) were used for the experiment. In the control group, 0.5% tragacanth solution was given to the rats. In other test groups, 0.3, 3 or 30 mg/kg of the compound obtained in Example 11 (compound A) was given to them. Compound A was used in the form of a suspension thereof in 0.5% tragacanth solution.\nFive ml/kg of 0.5% tragacanth solution or compound A was orally administered to the rats. Three hours after, the rats were tranquilized with halothane, and 2.5% formalin solution (100 μl) was injected subcutaneously to dorsal surface of the left hindpaw. Immediately thereafter, the rats were awaken from the anesthesia. […] The number of times of retracting action, i.e., flinching action of the hindpaw in which formalin had been injected, was counted for 1 minute at an interval of one minute until 5 minutes after the formalin injection, and for 1 minute at an interval of 5 minutes from 10 to 60 minutes after the injection. As reported in a literature (J. Pharmacol. Exp. Ther. 263: 136-146, 1992), the pain reaction by the stimulation with formalin appeared in two phases. The total number of times of the flinching action observed 10 to 60 minutes after the formalin injection (the second phase) was taken as the index of the pain action.\nThe experiment was conducted in the same manner as that in above Test Example 3 except for the followings.\nFive test groups each composed of 6 male Sprague-Dawley (SD) rats (9 weeks old) were used for the experiment. In the control group, polyethylene glycol 400 was given to the rats. In the other test groups, 3, 30, 100 or 300 mg/kg of the compound obtained in Example 71 (compound B) was given to them. Compound B was used in the form of a solution thereof in polyethylene glycol 400 (PEG).\nThree ml/kg of PEG or compound B was orally administered to the rats."}, "[2]": {"tested_on": "Sprague-Dawley (SD) rats, partial sciatic nerve ligation (Seltzer model)", "experiment": "Analgesic effects on a neuropathic pain model (partial sciatic nerve ligation model, mechanical allodynia, von Frey filaments)", "assay_type": "in vivo, rat", "conditions": "one hour after administration", "method": "The effect of compound A in improving mechanical allodynia was evaluated using the partial sciatic nerve ligation model (Seltzer model, Pain, 43: 205-218, 1990) which belongs to the neuropathic pain models. For detecting the mechanical allodynia, the sole of the right paw of each rat was stimulated with von Frey filaments, and the threshold of the reaction for the mechanical stimulation (50% threshold) was determined according to a method of Chaplan et al. (J. Neurosci. Methods, 53: 55-63, 1994). In this step, the stimulation of the sole of the paw with each filament was repeated 8 times at a rate of about twice a second.\nAbout a half thickness of the right sciatic nerve of each 8 week-old male Sprague-Dawley (SD) rat, whose reaction threshold was determined before the nerve injury, was ligated with a surgical suture to partially injure the nerve according to a method of Seltzer et al. (Pain, 43: 205-218, 1990). Six days after the nerve injury, the reaction threshold of the right hindpaw was determined and compared with that determined before the nerve injury. Individuals having a threshold far lower than that determined before the nerve injury [i.e. rats showing mechanical allodynia] were selected for evaluating allodynia improving effect. Seven and 9 days after the nerve injury, the reaction threshold of the rats selected for the purpose of the evaluation was determined before compound administration. […] One hour after the administration, the reaction threshold of each rat was determined.\nThe effect of compound B in improving mechanical allodynia was evaluated using the partial sciatic nerve ligation model (Seltzer model, Pain, 43: 205-218, 1990) which belongs to the neuropathic pain models. […] Six days after the nerve injury, the reaction threshold of the right hindpaw was determined and was compared with that determined before the nerve injury. Individuals having a threshold far lower than that determined before the nerve injury [i.e. rats showing mechanical allodynia] were selected for evaluating allodynia improving effect. […]"}}}
{"molecule": "CC(C)(C)C(=O)NCCC(=O)N1CCC(=C2c3ccccc3C=Cc3ccccc32)CC1", "note": "[Example 11, N-{3-[4-(5H-dibenzo[a,d][7]annulen-5-ylidene)-1-piperidinyl]-3-oxopropyl}-2,2-dimethylpropanamide]", "values": [{"measurement": "IC50", "setting": "L-type calcium channel", "value": 398, "unit": "nM"}, {"measurement": "inhibiting ratio of flinches (second phase, 10 to 60 min) based on control group", "setting": "[1]; 0.3 mg/kg oral, suspension in 0.5% tragacanth, 3 hours before formalin", "value": 10, "unit": "%"}, {"measurement": "inhibiting ratio of flinches (second phase, 10 to 60 min) based on control group", "setting": "[1]; 3 mg/kg oral, suspension in 0.5% tragacanth, 3 hours before formalin", "value": 42, "unit": "%"}, {"measurement": "inhibiting ratio of flinches (second phase, 10 to 60 min) based on control group", "setting": "[1]; 30 mg/kg oral, suspension in 0.5% tragacanth, 3 hours before formalin", "value": 37, "unit": "%"}, {"measurement": "reaction threshold for mechanical stimulation (50% threshold) after the administration", "setting": "[2]; 3 mg/kg oral in 0.5% tragacanth", "value": "increased"}]}
{"molecule": "CC(C)(C)C(=O)N[C@H](CO)CCC(=O)N1CCC(=C2c3ccccc3C=Cc3ccccc32)CC1", "note": "[Example 71, (S)-N-[4-[4-(5H-dibenzo[a,d][7]annulen-5-ylidene)-1-piperidinyl]-1-(hydroxylmethyl)-4-oxobutyl]-2.2-dimethylpropanamide]", "values": [{"measurement": "IC50", "setting": "L-type calcium channel", "value": 1260, "unit": "nM"}, {"measurement": "inhibiting ratio of flinches (second phase, 10 to 60 min) based on control group", "setting": "[1]; 3 mg/kg oral, solution in polyethylene glycol 400", "value": 11, "unit": "%"}, {"measurement": "inhibiting ratio of flinches (second phase, 10 to 60 min) based on control group", "setting": "[1]; 30 mg/kg oral, solution in polyethylene glycol 400", "value": 33, "unit": "%"}, {"measurement": "inhibiting ratio of flinches (second phase, 10 to 60 min) based on control group", "setting": "[1]; 100 mg/kg oral, solution in polyethylene glycol 400", "value": 53, "unit": "%"}, {"measurement": "inhibiting ratio of flinches (second phase, 10 to 60 min) based on control group", "setting": "[1]; 300 mg/kg oral, solution in polyethylene glycol 400", "value": 59, "unit": "%"}, {"measurement": "reaction threshold for mechanical stimulation (50% threshold) after the administration", "setting": "[2]; 3 mg/kg oral in PEG", "value": "hardly changed"}, {"measurement": "reaction threshold for mechanical stimulation (50% threshold) after the administration", "setting": "[2]; 100 mg/kg oral in PEG", "value": "clearly increased"}]}
